Calls of active or inactive are those of the source. How the calls were made is not given here.
Test system: CCRIS mutagenicity, Ames/micronucleus/aberration tests
Assay: CCRIS mutagenicity studies
[1] = Test System: AMES SALMONELLA TYPHIMURIUM, Strain/Indicator: TA98, Metabolic Activation: NONE, Method: PREINCUBATION
[2] = Test System: AMES SALMONELLA TYPHIMURIUM, Strain/Indicator: TA100, Metabolic Activation: NONE, Method: PREINCUBATION
[3] = Test System: AMES SALMONELLA TYPHIMURIUM, Strain/Indicator: TA102, Metabolic Activation: NONE, Method: STANDARD PLATE
[4] = Test System: AMES SALMONELLA TYPHIMURIUM, Strain/Indicator: TA98, Metabolic Activation: NONE, Method: STANDARD PLATE

Measured: mutagenic call

O=C1OCCO1
inactive: [1] inactive; negative | Test System: AMES SALMONELLA TYPHIMURIUM, Strain/Indicator: TA98, Metabolic Activation: RAT LIVER S-9, PHENOBARBITAL AND BETA-NAPHTHOFLAVONE, Method: PREINCUBATION inactive; negative | [2] inactive; negative | Test System: AMES SALMONELLA TYPHIMURIUM, Strain/Indicator: TA100, Metabolic Activation: RAT LIVER S-9, PHENOBARBITAL AND BETA-NAPHTHOFLAVONE, Method: PREINCUBATION inactive; negative | Test System: AMES SALMONELLA TYPHIMURIUM, Strain/Indicator: TA1535, Metabolic Activation: NONE, Method: PREINCUBATION inactive; negative | Test System: AMES SALMONELLA TYPHIMURIUM, Strain/Indicator: TA1535, Metabolic Activation: RAT LIVER S-9, PHENOBARBITAL AND BETA-NAPHTHOFLAVONE, Method: PREINCUBATION inactive; negative | Test System: AMES SALMONELLA TYPHIMURIUM, Strain/Indicator: TA1537, Metabolic Activation: NONE, Method: PREINCUBATION inactive; negative | Test System: AMES SALMONELLA TYPHIMURIUM, Strain/Indicator: TA1537, Metabolic Activation: RAT LIVER S-9, PHENOBARBITAL AND BETA-NAPHTHOFLAVONE, Method: PREINCUBATION inactive; negative | Test System: E.COLI, Strain/Indicator: WP2UVRA/PKM101, Metabolic Activation: NONE, Method: PREINCUBATION inactive; negative | Test System: E.COLI, Strain/Indicator: WP2UVRA/PKM101, Metabolic Activation: RAT LIVER S-9, PHENOBARBITAL AND BETA-NAPHTHOFLAVONE, Method: PREINCUBATION inactive; negative

C[C@H](CCC(=O)O)[C@H]1CC[C@H]2[C@@H]3C(=O)C[C@@H]4C[C@H](O)CC[C@]4(C)[C@H]3CC[C@]12C
inactive: Test System: AMES SALMONELLA TYPHIMURIUM, Strain/Indicator: TA98, Metabolic Activation: NONE, Method: FLUCTUATION TEST inactive; negative | [1] inactive; negative | Test System: AMES SALMONELLA TYPHIMURIUM, Strain/Indicator: TA98, Metabolic Activation: RAT, LIVER, S-9, PCB, Method: PREINCUBATION inactive; negative | Test System: AMES SALMONELLA TYPHIMURIUM, Strain/Indicator: TA100, Metabolic Activation: NONE, Method: FLUCTUATION TEST inactive; negative

Nc1ccc(Cc2cc(O)c(N)c(Cl)c2)cc1Cl
inactive: [1] inactive; negative | [2] inactive; negative

O=C(O)C(Cl)CCl (centres undefined)
inactive: [3] inactive; negative | Test System: AMES SALMONELLA TYPHIMURIUM, Strain/Indicator: TA2638, Metabolic Activation: NONE, Method: STANDARD PLATE inactive; negative | Test System: E. COLI, Strain/Indicator: WP2 (PKM101), Metabolic Activation: NONE, Method: STANDARD PLATE inactive; negative | Test System: E. COLI, Strain/Indicator: WP2 UVRA (PKM101), Metabolic Activation: NONE, Method: STANDARD PLATE inactive; negative

NC(=O)N/N=C(/CCN1CCCCC1)c1ccc([N+](=O)[O-])o1
active: Test System: E. COLI, Strain/Indicator: WP2, Metabolic Activation: NONE, Method: SPOT active; positive | Test System: E. COLI, Strain/Indicator: WP2 UVRA, Metabolic Activation: NONE, Method: SPOT active; positive

CC(=O)c1cc2c(cc1C)C(C)(C)C(C)C2C(C)C (centres undefined)
inactive: Test System: AMES SALMONELLA TYPHIMURIUM, Strain/Indicator: TA97, Metabolic Activation: NONE, Method: STANDARD PLATE inactive; negative | Test System: AMES SALMONELLA TYPHIMURIUM, Strain/Indicator: TA97, Metabolic Activation: RAT LIVER S-9, AROCLOR 1254, Method: STANDARD PLATE inactive; negative | [4] inactive; negative | Test System: AMES SALMONELLA TYPHIMURIUM, Strain/Indicator: TA98, Metabolic Activation: RAT LIVER S-9, AROCLOR 1254, Method: STANDARD PLATE inactive; negative | Test System: AMES SALMONELLA TYPHIMURIUM, Strain/Indicator: TA100, Metabolic Activation: NONE, Method: STANDARD PLATE inactive; negative | Test System: AMES SALMONELLA TYPHIMURIUM, Strain/Indicator: TA100, Metabolic Activation: RAT LIVER S-9, AROCLOR 1254, Method: STANDARD PLATE inactive; negative | [3] inactive; negative | Test System: AMES SALMONELLA TYPHIMURIUM, Strain/Indicator: TA102, Metabolic Activation: RAT LIVER S-9, AROCLOR 1254, Method: STANDARD PLATE inactive; negative

C=CCBr
active: End Point: IN VITRO CHROMOSOMAL ABERRATIONS, Test System: CHL CELLS, Metabolic Activation: NONE active; positive (structural changes) | Test System: Ames Salmonella typhimurium, Strain/Indicator: TA100, Metabolic Activation: Hamster, Liver, S-9, Aroclor 1254 (30%), Method: Standard plate active; positive (weak response) | Test System: Ames Salmonella typhimurium, Strain/Indicator: TA100, Metabolic Activation: None, Method: Standard plate active; positive | Test System: Ames Salmonella typhimurium, Strain/Indicator: TA100, Metabolic Activation: Rat, Liver, S-9, Aroclor 1254 (30%), Method: Standard plate active; positive
inactive: End Point: IN VITRO CHROMOSOMAL ABERRATIONS, Test System: CHL CELLS, Metabolic Activation: RAT, LIVER, S-9, SODIUM PHENOBARBITAL AND 5,6-BENZOFLAVONE inactive; negative; authors report equivocal results for structural changes at 0.06 mg/ml | End Point: In vivo micronucleus, Species: Mouse, Strain/Sex: C57BL/6/Male, Route: Oral inactive; negative | End Point: In vivo micronucleus, Test System: Peripheral blood normochromatic erythrocytes, Species: Mouse, Strain/Sex: C57BL/6/Female, Route: Oral inactive; negative | End Point: In vivo micronucleus, Test System: Peripheral blood normochromatic erythrocytes, Species: Mouse, Strain/Sex: FVB/N/Female, Route: Oral inactive; negative | End Point: In vivo micronucleus, Test System: Peripheral blood normochromatic erythrocytes, Species: Mouse, Strain/Sex: FVB/N/Male, Route: Oral inactive; negative | End Point: In vivo micronucleus, Test System: Peripheral blood normochromatic erythrocytes, Species: Mouse, Strain/Sex: P53 Haploinsufficient/Female, Route: Oral inactive; negative | End Point: In vivo micronucleus, Test System: Peripheral blood normochromatic erythrocytes, Species: Mouse, Strain/Sex: P53 Haploinsufficient/Male, Route: Oral inactive; negative | End Point: In vivo micronucleus, Test System: Peripheral blood normochromatic erythrocytes, Species: Mouse, Strain/Sex: Tg.AC Hemizygous/Female, Route: Oral inactive; negative | End Point: In vivo micronucleus, Test System: Peripheral blood normochromatic erythrocytes, Species: Mouse, Strain/Sex: Tg.AC Hemizygous/Male, Route: Oral inactive; negative | Test System: Ames Salmonella typhimurium, Strain/Indicator: TA98, Metabolic Activation: Hamster, Liver, S-9, Aroclor 1254 (30%), Method: Standard plate inactive; negative | Test System: Ames Salmonella typhimurium, Strain/Indicator: TA98, Metabolic Activation: None, Method: Standard plate inactive; negative | Test System: Ames Salmonella typhimurium, Strain/Indicator: TA98, Metabolic Activation: Rat, Liver, S-9, Aroclor 1254 (30%), Method: Standard plate inactive; negative

O=[N+]([O-])c1cc([N+](=O)[O-])c2c3ccccc3c3cccc4ccc1c2c43
active: [4] active; positive

C[N+]1=CC=C(c2ccccc2)CC1
active: [2] active; positive
inactive: Test System: AMES SALMONELLA TYPHIMURIUM, Strain/Indicator: TA102, Metabolic Activation: NONE, Method: PREINCUBATION inactive; negative

From PubChem BioAssay AID1259407 (Chemical Carcinogenesis Research Information System (CCRIS), 2018)
